Patent publication US6468972B1, “Method to promote, stimulate and/or delay hair loss by a brady kinin antagonist” (Societe L'Oreal S.A., priority 1995, dated 2002)

How the values were obtained:
[1] = system: bradykinin-induced increase in intracellular calcium concentration in keratinocytes of the outer sheath of human hair follicles; assay: Effect on the increase in intracellular calcium concentration induced by bradykinin (FURA 2 spectrofluorimetry); format: cell-based; conditions: for Effect on the increase in intracellular calcium concentration induced by bradykinin (in words): summary statement of Example 1; for % Inhibition (1 μM bradykinin): preincubation at least 120 seconds before 1 μM bradykinin, ORS keratinocytes
Method: (§1) a) Culturing Keratinocytes of the Outer Sheath of Human Hair Follicles: This procedure is a variant of that described by YANG et al., J. Invest. Dermatol., 1993, 101 (5), 652-659. After decontamination, a lifting scalp biopsy is treated with dispase in a proportion of 2.4 units/ml for 20 hours at 4° C. The outer sheath of the hair follicles (ORS) is then isolated by dissection, followed by treatment with 0.125% trypsin for 30 minutes at 37° C. The cells thus prepared are then cultured in conditioned Green medium for 6 days. […] The cells are then placed on glass slides 10 mm in diameter and cultured in KGM medium. b) Measurement of the Intracellular Calcium Concentration: The measurements are taken according to the procedures used conventionally by those skilled in the art and which are found, for example, in Cellular Calcium: A Practical Approach, published by J. G. McCormack and P. H. Cobbold; IRL PRESS (1991). The cells are incubated for 1 hour at 37° C. in 10 mM HEPES buffer, 5 mM KCl, 140 mM NaCl, 10 mM glucose, 1 mM MgCl2, 2 mM CaCl2 with 5 μM FURA 2 acetomethyl ester and Pluronic (5 mg/10 ml). After rinsing in the buffer, the slides are placed in an adapted support and the reading is taken using a PERKIN ELMER LS 50 B spectrofluorimeter at 37° C. The cells are preincubated with or without Minoxidil or Minoxidil sulphate, for at least 120 seconds before the injection of 1 μM bradykinin.

[2] = as above; format: cell-based, human; conditions: Homo sapiens, Keratinocyte, preincubation at least 120 seconds before 1 μM bradykinin, ORS keratinocytes
Method: as §1

Compound | Effect on the increase in intracellular calcium concentration induced by bradykinin (in words) [1] | inhibition at 10 µM ([2]; product concentration 10 μM) [%] | inhibition at 50 µM ([2]; product concentration 50 μM) [%] | inhibition at 100 µM ([2]; product concentration 100 μM) [%] | inhibition at 1000 µM ([2]; product concentration 1000 μM) [%] | % Inhibition (1 μM bradykinin) ([1]; product concentration 10 μM) [%] | % Inhibition (1 μM bradykinin) ([1]; product concentration 50 μM) [%] | % Inhibition (1 μM bradykinin) ([1]; product concentration 100 μM) [%] | % Inhibition (1 μM bradykinin) ([1]; product concentration 1000 μM) [%]
Nc1cc(N2CCCCC2)nc(N)[n+]1[O-] [Minoxidil, 2,4-diamino-6-piperidinopyrimidine 3-oxide] | inhibit the increase in intracellular calcium concentration induced by bradykinin | 0 | 15 | 25 | 31 | – | – | – | –
Minoxidil sulphate | inhibit the increase in intracellular calcium concentration induced by bradykinin | – | – | – | – | 0 | 31 | 54 | 70
